Assay results from BindingDB's records for doi:10.1016/j.bioorg.2015.04.003 (Comsats Institute of Information Technology, 2015).

Biological target: T1, Thymidine phosphorylase (Escherichia coli O157:H7, UniProt Q8XB35)
T1 sequence (Q8XB35 whole entry): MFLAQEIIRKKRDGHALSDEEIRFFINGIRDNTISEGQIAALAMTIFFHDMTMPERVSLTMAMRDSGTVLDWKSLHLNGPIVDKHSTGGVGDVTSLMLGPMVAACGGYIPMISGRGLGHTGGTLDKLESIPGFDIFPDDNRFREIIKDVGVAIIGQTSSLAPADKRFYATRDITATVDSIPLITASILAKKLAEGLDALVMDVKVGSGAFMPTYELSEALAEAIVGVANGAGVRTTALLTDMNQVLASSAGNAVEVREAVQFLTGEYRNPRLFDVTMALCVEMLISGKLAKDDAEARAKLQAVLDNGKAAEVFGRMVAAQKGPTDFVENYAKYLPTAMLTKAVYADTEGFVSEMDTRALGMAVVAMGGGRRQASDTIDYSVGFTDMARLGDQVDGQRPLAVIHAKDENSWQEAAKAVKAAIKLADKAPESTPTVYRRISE
Test: Thymidine Phosphorylase Inhibition Assay
Details: pH 7.4
Description: Briefly, a total reaction mixture of 200 µl contained 145 µl of potassium phosphate buffer (pH 7.4), 30 µl of enzyme at concentration 0.05 and 0.002 U, respectively, were incubated with 5 µl of test materials for 10 min at 25 °C in microplate reader. After incubation, pre read at 290 nm was taken to deduce the absorbance of substrate molecules. Substrate (20 µl, 1.5 mM) was dissolved in potassium phosphate buffer and was immediately added to plate and continuously read after 10, 20, and 30 min in micro-plate reader. All assays were performed in triplicate

SMILES	IC50 [µM]
Nc1ccccc1-c1n[nH]c(=S)o1 [5-(2'-Aminophenyl)-1,3,4-oxadiazole-2(3H)-thione (3)]	74.3
Oc1ccccc1-c1nnc(S)o1 [5-(2'-Hydroxyphenyl)-2,3-dihydro-1,3,4-oxadiazole-2-thione (2)]	68.4
Cc1cccc(-c2nnc(S)o2)c1 [5-(3'-Methylphenyl)-1,3,4-oxadiazole-2(3H)-thione (4)]	91.8
Sc1nnc(-c2cccc(Cl)c2)o1 [5-(3'-Chlorophenyl)-1,3,4-oxadiazole-2(3H)-thione (10)]	258
COc1cc(-c2n[nH]c(=S)o2)cc(OC)c1OC [5-(3',4',5'-Trimethoxyphenyl)-1,3,4-oxadiazole-2(3H)-thione (8)]	63.4
S=c1[nH]nc(-c2ccc(Br)cc2)o1 [5-(4'-Bromophenyl)-1,3,4-oxadiazole-2(3H)-thione (12)]	64
S=c1[nH]nc(-c2ccc(Cl)cc2)o1 [5-(4'-Chlorophenyl)-1,3,4-oxadiazole-2(3H)-thione (11)]	64
COc1ccc(-c2n[nH]c(=S)o2)cc1 [5-(4'-Methoxyphenyl)-1,3,4-oxadiazole-2(3H)-thione (7)]	72.4
Oc1ccc(-c2nnc(S)o2)cc1 [5(4'-Hydroxyphenyl)-1,3,4-oxadiazole-2(3H)-thione (6)]	38.2
